The first test addresses T1, human GPR84 receptor (Homo sapiens, UniProt Q9NQS5).
T1 construct: host or cells: HEK293, transient transfection
As to the kind of experiment: Gαi biosensor BRET assay in HEK293 cells (antagonism of ZQ-16). It counts as cell-based. The following applies: HEK293, single concentration 2 μM (designated A). The text has this:
Background—The following assays can be used for determination of GPR84 activation in living HEK293 cells. The Gai BRET biosensor (Gagnon et al., 2018; Gales et al., 2006. Nat StructMol Biol. 13, 778-86; Saulieres et al., 2012. Nat Chem Biol. 8, 622-30) allows to directly monitor GPR84-mediated activation of Gai. The Gai biosensor consists of a Rluc8-tagged Gαi2 subunit, a GFP10-tagged Gγ2 subunit, and an untagged Gβ1. Agonist stimulation and GPR84 activation triggers a physical separation between the RLuc8-Gαi donor and the GFP10-Gγ2 acceptor, resulting in a decrease in BRET signal whose amplitude is correlated to ligand efficacy (Gales et al., 2006). Moreover, signaling functions of GPCRs are tightly regulated by endocytosis, the targeting of receptors to endosomes and their sorting to lysosomes or recycling to the plasma membrane. The early endosomes (EEs) trafficking assay (Namkung et al., 2016. Nat Commun. 7, 12178) uses Rluc8-tagged GPR84 and Renilla GFP (rGFP) attached to the FYVE domain from human endofin/zinc finger FYVE domain-containing protein 16, which binds phosphatidylinositol 3-phosphate in EEs. Agonist stimulation of GPR84-Rluc8 leads to trafficking of the receptor to EEs, and ensuing increase of the donor concentration relative to the rGFP-FYVE acceptor anchored in the same cellular compartment, and thus results in an increase in BRET signal.
Plasmids—The cDNA clones for human GPR84 receptor, human Gai2, Gp1, and Gy2 were obtained from the cDNA Resource Center (www.cdna.org). GFP10 (F64L, S147P, S202F and H231L variant of Aequorea victoria Green Fluorescent Protein) gBlocks gene fragments (Integrated DNA Technologies, IA) and linker were inserted in frame at the N-terminus of human Gγ2. Rluc8 (A55T, C124A, S130A, K136R, A143M, M185V, M253L, and S287L variant of the Renilla renformis luciferase) gBlocks gene fragment was inserted with linkers in frame in between residues 91 and 92 of Gai2 or at the C-terminus of GPR84. The FYVE domain from human endofin (residues Q739 to K806) attached in frame at the C terminus of a humanized Renilla GFP (rGFP), were synthesized as gBlocks gene fragments.
Bioluminescence Resonance Energy Transfer (BRET) Measurement—HEK293 cells were transfected with GPR84-Rluc8 and rGFP-FYVE for the EEs trafficking biosensor or with GPR84, Gαi2-Rluc8, GFP10-Gγ2, and Gβ1 for the Gαi biosensor. The following day, transiently transfected cells were seeded in 96-well white clear bottom microplates coated with poly-D-lysine and left in culture for 24 hours. Cells were washed once with Tyrode's buffer (140 mmol/L NaCl, 1 mmol/L CaCl2, 2.7 mmol/L KCl, 0.49 mmol/L MgCl2, 0.37 mmol/L NaH2PO4, 5.6 mmol/L glucose, 12 mmol/L NaHCO3, and 25 mmol/L HEPES, pH 7.5) before performing assays in Tyrode's buffer. Test compounds were incubated with cells for 5 (Gαi) or 15 (EEs) minutes at 37° C. before addition of 200 nmol/L of the GPR84 agonist ZQ-16 (2-(Hexylthio)-6-hydroxy-4(3H)-pyrimidinone) for 5 minutes at room temperature (Gαi) or 30 minutes at 37° C. (EEs). The Rluc8 substrate coelenterazine 400A (Prolume, Lakeside, AZ) was added at a final concentration of 5 μmol/L and BRET readings were collected using an Infinite M1000 microplate reader (Tecan, Morrisville, NC). BRET^2 readings between Rluc8 and GFP10 or rGFP were collected by sequential integration of the signals detected in the 370 to 450 nm (Rluc8) and 510 to 540 nm (GFP10, rGFP) windows. The BRET signal was calculated as the ratio of light emitted by acceptor (GFP10, rGFP) over the light emitted by donor (Rluc8). The values were corrected to net BRET by subtracting the background BRET signal obtained in cells transfected with Rluc8 constructs alone. Ligand-promoted net BRET values were calculated by subtracting vehicle-induced net BRET from ligand-induced net BRET.
T1 sequence (Q9NQS5 whole entry): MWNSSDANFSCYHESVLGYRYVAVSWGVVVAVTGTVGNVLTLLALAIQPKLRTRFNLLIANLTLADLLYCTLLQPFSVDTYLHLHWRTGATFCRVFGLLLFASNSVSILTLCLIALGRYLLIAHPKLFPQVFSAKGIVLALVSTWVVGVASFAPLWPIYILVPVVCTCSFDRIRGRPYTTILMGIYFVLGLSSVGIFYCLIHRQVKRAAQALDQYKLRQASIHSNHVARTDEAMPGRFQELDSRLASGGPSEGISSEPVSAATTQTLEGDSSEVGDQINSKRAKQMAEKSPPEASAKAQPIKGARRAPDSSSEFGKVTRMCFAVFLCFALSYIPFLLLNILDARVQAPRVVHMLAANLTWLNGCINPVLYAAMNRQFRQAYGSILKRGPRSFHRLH
For `COC1CCN(c2ccc(-c3cn(CC4CCCCO4)nn3)c(C)c2)C1` (stereo not drawn) [Compound I-463], the inhibition (usually the share of the control response that was lost under treatment) at 2 µM was at most 25%.

Regarding `OCC#Cc1ccc(-c2cn(CC3OCC4(CCC4)O3)nn2)c(CC(F)(F)F)c1` (stereo not drawn) [Compound I-808], the inhibition at 2 µM is over 75%.

On to `CC1(C)COC(Cn2cc(-c3ncc(C#CCN4CC(C)(C)C4)cc3OCC(F)(F)F)nn2)OC1` [Compound I-722], for which the inhibition at 2 µM is over 75%.

On to `Cc1cc(OC2CN(Cc3ccccn3)C2)ccc1-c1cn(CC2CCCCO2)nn1` (stereo not drawn) [Compound I-514], for which the inhibition at 2 µM was at most 25%.

In turn, `Cc1ccc(C#CC2CC2)nc1-c1cn(Cc2ncccn2)nn1` [Compound I-481] displayed an inhibition at 2 µM of at most 25%.

Still in this test, the particulars now being: HEK293, single concentration 5 μM (designated D).
The compound `Cc1cc(N2CCC3(CC2)CNC3)ccc1-c1cn(CC2CCCCO2)nn1` (stereo not drawn) [Compound I-186] came in with an inhibition at 5 µM of at most 25%.

The same test, now with this note: HEK293, single concentration 10 μM (designated F).
As for `Cc1cc(N2CC3(CN(c4cccnc4)C3)C2)ccc1-c1cn(CC2OCC(C)(C)CO2)nn1` [Compound I-684], the inhibition at 10 µM is over 75%.

Compound `CN(C)c1cc(N2CC(C)(CO)C2)ccc1-c1cn(CC2OCC(F)(F)CO2)nn1` [Compound I-729] yielded an inhibition at 10 µM of over 75%.

`Cc1cc(C#CC2CC2)ccc1-c1cn(C[C@H]2CC[C@@H](C)O2)nn1` [Compound I-225] had an inhibition at 10 µM of 25 to 50%.

The compound `Cc1cc(C#CCN2CC(C)(C)C2)cnc1-c1cn(C[C@H]2CCCCO2)nn1` [Compound I-284] yielded an inhibition at 10 µM of over 75%.

In turn, `Cc1cc(N2CC3(CCN(C)CC3)C2)ccc1-c1cn(CC2CCCCO2)nn1` (stereo not drawn) [Compound I-155] returned an inhibition at 10 µM of at most 25%.

The compound `Cc1cc(C#CCN2CC(C)(C)C2)cnc1-c1nnnn1CC1OCC(C)(C)CO1` [Compound I-836] displayed an inhibition at 10 µM of 50 to 75%.

Take `Cc1cc(C2CC2)cnc1-c1cn(CC2OCC(C)(C)CO2)nn1` [Compound I-871]: the inhibition at 10 µM was 25 to 50%.

As to `Cc1c(C#CC2CC2)cccc1C(C)c1cn(C[C@H]2CCCCO2)nn1` (stereo partly drawn) [Compound I-741], the inhibition at 10 µM is over 75%.

Consider `Cc1cc(N2CC3(CCNCC3)C2)ccc1-c1cn(CC2CCCCO2)nn1` (stereo not drawn) [Compound I-154], for which the inhibition at 10 µM lay in the range of 25 to 50%.

With `Cc1cc(N2CCN(C(C)c3ccccn3)CC2)ccc1-c1cn(CC2OCC(C)(C)CO2)cn1` (stereo not drawn) [Compound I-828], the inhibition at 10 µM lay within 50 to 75%.

`CNC(C)(C)COc1ccc(-c2cn(CC3CCCCO3)nn2)c(C)c1` (stereo not drawn) [Compound I-288] showed an inhibition at 10 µM of 25 to 50%.

On to `COCC(=O)N1CCCCC1Cn1cc(-c2ccc(C#CC3CC3)cc2C)nn1` (stereo not drawn) [Compound I-192], for which the inhibition at 10 µM is at most 25%.

Compound `COC(C)Cn1cc(-c2ccc(C#CCNc3ccccc3)cc2C)nn1` (stereo not drawn) [Compound I-162] returned an inhibition at 10 µM of 25 to 50%.

`COC(=O)N1CCCCC1Cn1cc(-c2ccc(C#CC3CC3)cc2C)nn1` (stereo not drawn) [Compound I-190]: the inhibition at 10 µM was at most 25%.

With `Cc1cc(C#CC2CC2)ccc1-c1cn(CC(O)CO)nn1` (stereo not drawn) [Compound I-224], the inhibition at 10 µM is 25 to 50%.

For the compound `Cc1ccc(C#CC2CC2)cc1S(=O)(=O)c1cn(CC2OCC(C)(C)CO2)nn1` [Compound I-783, 4-((5-(cyclopropylethynyl)-2-methylphenyl)sulfonyl)-1-((5,5-dimethyl-1,3-dioxan-2-yl)methyl)-1H-1,2,3-triazole], the inhibition at 10 µM is at most 25%.

The compound `Cc1cc(N2CC3(CN(C)C3)C2)ccc1-c1cn(CC2CCCCO2)nn1` (stereo not drawn) [Compound I-145] displayed an inhibition at 10 µM of at most 25%.

`Cc1cc(N2CCCC2)ccc1-c1cn(CC2CCCCO2)nn1` (stereo not drawn) [Compound I-472] registered an inhibition at 10 µM of 25 to 50%.

For `Cc1cc(C#CCN2CCCCC2=O)ccc1-c1cn(CC2CCCCO2)nn1` (stereo not drawn) [Compound I-205], the inhibition at 10 µM was 25 to 50%.

In turn, `Cc1cc(C#CC2CC2)ccc1-c1cn(CC2CNC(=O)O2)nn1` (stereo not drawn) [Compound I-458] registered an inhibition at 10 µM of at most 25%.

Take `Cc1cc(C#CC2CC2)ccc1-c1cn(CC2OCC(F)(F)CO2)nn1` [Compound I-670]: the inhibition at 10 µM is 50 to 75%.

In turn, `Cc1cc(C#CCNC(=O)Oc2ccccc2)ccc1-c1cn(CC2CCCCO2)nn1` (stereo not drawn) [Compound I-619] came in with an inhibition at 10 µM of over 75%.

Compound `CC(C)c1cc(C#CC2CC2)ccc1-c1cn(CC2CCOCC2)nn1` [Compound I-212] had an inhibition at 10 µM of at most 25%.

Compound `Cc1cc(N2CCCC23CNC3)ccc1-c1cn(CC2CCCCO2)nn1` (stereo not drawn) [Compound I-150] gave an inhibition at 10 µM of at most 25%.

Compound `Cc1cc(N2CCC2)ccc1-c1cn(CC2CCCCO2)nn1` (stereo not drawn) [Compound I-157] gave an inhibition at 10 µM of 50 to 75%.

In the case of `Cc1cc(C#CC2CC2)ccc1-c1cn(CC2OCCCC2(C)C)nn1` (stereo not drawn) [Compound I-522, 4-(4-(cyclopropylethynyl)-2-methylphenyl)-1-((3,3-dimethyltetrahydro-2H-pyran-2-yl)methyl)-1H-1,2,3-triazole], the inhibition at 10 µM was 50 to 75%.

Compound `Cc1cc(C#CC2CC2)ccc1-c1cn(CC2CCCCN2S(C)(=O)=O)nn1` (stereo not drawn) [Compound I-191] came in with an inhibition at 10 µM of at most 25%.

In turn, `Cc1cc(N2CCN([C@H](C)c3ccccn3)CC2)ccc1-c1cn(C[C@H]2CCCCO2)nn1` [Compound I-611] showed an inhibition at 10 µM of 25 to 50%.

`Cc1cc(C(=O)n2ccc(N)n2)ccc1-c1cn(CC2CCCCO2)nn1` (stereo not drawn) [Compound I-438]: the inhibition at 10 µM was in the range of 25 to 50%.

In turn, `FC1(F)CC(C#Cc2cnc(-c3cn(CC4OCC5(CC5)CO4)nn3)c(OC3CC3)c2)C1` (stereo not drawn) [Compound I-862] registered an inhibition at 10 µM of 50 to 75%.

As for `C(#CC1CC1)c1ccc2c(c1)CCc1nnn(CC3CCCCO3)c1-2` (stereo not drawn) [Compound I-305], the inhibition at 10 µM was at most 25%.

`Cc1cc(N2CC3(CCNC3)C2)ccc1-c1cn(CC2CCCCO2)nn1` (stereo not drawn) [Compound I-167] yielded an inhibition at 10 µM of at most 25%.

In the case of `CC1(C)CN(CC#Cc2cnc(-c3cn(C[C@H]4CCCCO4)nn3)c(CC(F)(F)F)c2)C1` [Compound I-818], the inhibition at 10 µM was over 75%.

The compound `COC(=O)N1CCC(c2ccc(-c3cn(CC4CCCCO4)nn3)c(C)c2)CC1` (stereo not drawn) [Compound I-484] registered an inhibition at 10 µM of at most 25%.

Staying with this test, now noted: HEK293, single concentration 25 μM (designated I).
`C(#CC1CC1)c1ccc(-n2cc(CC3CCOCC3)nn2)cc1` [Compound I-294]: the inhibition at 25 µM was at most 25%.

`Cc1ccc(-c2ccc(-c3cn(CC4CCCCO4)nn3)cc2)cn1` (stereo not drawn) [Compound I-39]: the inhibition at 25 µM is over 75%.

The compound `C(#CC1CC1)c1ccc(-c2cn(CCOCC3CCCCO3)nn2)cc1` (stereo not drawn) [Compound I-83] registered an inhibition at 25 µM of 25 to 50%.

Regarding `c1ccc(COc2ccc(-c3cn(CC4CCCCO4)nn3)cc2)cc1` (stereo not drawn) [Compound I-53], the inhibition at 25 µM was at most 25%.

The compound `O=c1oc(CC2COCCO2)nn1-c1ccc(C#CC2CC2)cc1` (stereo not drawn) [Compound I-10, 5-((1,4-dioxan-2-yl)methyl)-3-(4-(cyclopropylethynyl)phenyl)-1,3,4-oxadiazol-2(3H)-one] came in with an inhibition at 25 µM of at most 25%.

For `C(#CC1CC1)c1ccc(-c2nnn(CC3COCCO3)n2)cc1` (stereo not drawn) [Compound I-3], the inhibition at 25 µM is at most 25%.

The test is the same for the next values; noted with them: HEK293 cells, antagonism of 200 nmol/L ZQ-16.
`OCC#Cc1ccc(-c2cn(CC3OCC4(CCC4)O3)nn2)c(CC(F)(F)F)c1` (stereo not drawn) [Compound I-808]: the concentration for half-maximal inhibition (IC50) (in general, the midpoint of a concentration-inhibition curve) fell in the range of 300 to 1000 nM.

Compound `CC1(C)COC(Cn2cc(-c3ncc(C#CCN4CC(C)(C)C4)cc3OCC(F)(F)F)nn2)OC1` [Compound I-722] had an IC50 of at most 300 nM.

Regarding `Cc1ccc(-c2ccc(-c3cn(CC4CCCCO4)nn3)cc2)cn1` (stereo not drawn) [Compound I-39], the IC50 is over 3000 nM.

For the compound `Cc1cc(N2CCN(C(C)c3ccccn3)CC2)ccc1-c1cn(CC2OCC(C)(C)CO2)cn1` (stereo not drawn) [Compound I-828], the IC50 lay in the range of 300 to 1000 nM.

Compound `Cc1cc(C#CCNC(=O)Oc2ccccc2)ccc1-c1cn(CC2CCCCO2)nn1` (stereo not drawn) [Compound I-619] came in with an IC50 of at most 300 nM.
